The values below come from ChEMBL document CHEMBL1909046, “DrugMatrix in vitro pharmacology data”.

A word on the IC50: it is the point on the concentration scale where inhibition reaches its midpoint. For orientation: Ki means the dissociation constant of the complex between target and ligand, obtained from inhibition or displacement.

In data set [1] the target is T1, C-X-C chemokine receptor type 2 (Homo sapiens, UniProt P25025). Note: in other assays of this panel Not Active means under 50% inhibition at 10 µM.
T1 sequence (P25025 whole entry): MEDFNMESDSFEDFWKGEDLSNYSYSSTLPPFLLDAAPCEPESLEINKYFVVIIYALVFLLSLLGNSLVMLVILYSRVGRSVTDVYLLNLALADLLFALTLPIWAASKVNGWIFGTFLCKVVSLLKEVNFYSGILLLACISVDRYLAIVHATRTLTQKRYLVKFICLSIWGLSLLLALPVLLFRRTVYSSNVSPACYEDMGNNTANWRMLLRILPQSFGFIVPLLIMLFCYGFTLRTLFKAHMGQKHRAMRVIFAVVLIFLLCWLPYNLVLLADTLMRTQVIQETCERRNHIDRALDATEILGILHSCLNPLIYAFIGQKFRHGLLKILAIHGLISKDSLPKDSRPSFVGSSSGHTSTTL
The data set is classed as cell membranes, Membrane. The settings on record: cho-k1.

The target of the next data set is T2, Cytochrome P450 2A6 (Homo sapiens, UniProt P11509). Note: in other assays of this panel Not Active means under 50% inhibition at 10 µM.
T2 sequence (P11509 whole entry): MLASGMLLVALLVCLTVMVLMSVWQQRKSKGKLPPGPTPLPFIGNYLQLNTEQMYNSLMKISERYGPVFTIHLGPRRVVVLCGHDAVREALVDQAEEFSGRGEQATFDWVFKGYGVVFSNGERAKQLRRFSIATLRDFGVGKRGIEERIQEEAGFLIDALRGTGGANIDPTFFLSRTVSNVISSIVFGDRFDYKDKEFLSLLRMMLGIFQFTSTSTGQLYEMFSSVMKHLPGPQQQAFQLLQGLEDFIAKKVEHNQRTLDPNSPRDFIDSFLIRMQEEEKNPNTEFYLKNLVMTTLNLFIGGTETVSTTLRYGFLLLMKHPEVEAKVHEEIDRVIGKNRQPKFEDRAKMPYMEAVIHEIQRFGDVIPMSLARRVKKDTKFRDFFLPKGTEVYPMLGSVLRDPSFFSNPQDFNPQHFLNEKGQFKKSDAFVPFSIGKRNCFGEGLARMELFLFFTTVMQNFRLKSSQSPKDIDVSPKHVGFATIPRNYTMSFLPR
Conditions: bti-tn-5b1-4.

The next data set addresses T3, Cathepsin G (Homo sapiens, UniProt P08311).
T3 sequence (P08311 whole entry): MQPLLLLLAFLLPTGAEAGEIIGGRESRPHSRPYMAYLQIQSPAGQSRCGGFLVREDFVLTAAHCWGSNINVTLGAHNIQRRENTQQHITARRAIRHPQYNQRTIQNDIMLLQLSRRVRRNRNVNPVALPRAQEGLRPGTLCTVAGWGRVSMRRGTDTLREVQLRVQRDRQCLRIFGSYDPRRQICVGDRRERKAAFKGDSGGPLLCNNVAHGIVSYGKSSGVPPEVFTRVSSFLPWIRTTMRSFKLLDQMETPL
It counts as tissue-based. Conditions: neutrophil.

Data set [2] deals with T4, C-X-C chemokine receptor type 1 (Homo sapiens, UniProt P25024).
T4 sequence (P25024 whole entry): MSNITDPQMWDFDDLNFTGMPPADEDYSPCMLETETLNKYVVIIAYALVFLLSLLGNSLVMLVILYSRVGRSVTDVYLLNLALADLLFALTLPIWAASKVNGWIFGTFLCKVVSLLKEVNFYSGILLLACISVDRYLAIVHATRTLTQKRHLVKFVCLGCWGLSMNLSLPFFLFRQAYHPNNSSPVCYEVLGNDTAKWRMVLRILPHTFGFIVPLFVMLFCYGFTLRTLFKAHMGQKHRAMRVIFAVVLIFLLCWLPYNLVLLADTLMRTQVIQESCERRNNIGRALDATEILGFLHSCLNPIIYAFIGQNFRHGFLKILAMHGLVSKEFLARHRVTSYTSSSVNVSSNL

Data set [3] in a line: DRUGMATRIX: Phorbol Ester radioligand binding (ligand: [3H] PDBu). It counts as cell membranes, Mus musculus, ICR, Brain, Membrane. The settings on record: Not Active = under 50% inhibition at 10 µM.
The target in data set [4] is T5, Alpha-2C adrenergic receptor (Homo sapiens, UniProt P18825).
T5 sequence (P18825 whole entry): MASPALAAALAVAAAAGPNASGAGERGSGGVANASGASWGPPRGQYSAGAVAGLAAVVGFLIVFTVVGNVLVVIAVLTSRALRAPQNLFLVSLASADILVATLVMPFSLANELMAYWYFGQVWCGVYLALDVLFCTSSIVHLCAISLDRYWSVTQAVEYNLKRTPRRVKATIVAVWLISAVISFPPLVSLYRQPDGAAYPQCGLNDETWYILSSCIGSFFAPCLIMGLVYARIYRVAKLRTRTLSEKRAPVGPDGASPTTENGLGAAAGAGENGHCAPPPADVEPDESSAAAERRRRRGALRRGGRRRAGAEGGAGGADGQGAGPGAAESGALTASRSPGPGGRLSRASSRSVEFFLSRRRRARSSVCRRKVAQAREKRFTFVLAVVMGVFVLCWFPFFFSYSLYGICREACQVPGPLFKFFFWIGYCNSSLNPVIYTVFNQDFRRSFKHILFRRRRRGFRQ
In words: DRUGMATRIX: Adrenergic Alpha-2C radioligand binding (ligand: [3H] MK-912). The data set is classed as cell membranes, Sf9, Membrane. Conditions: for Ki: read-out: Ki.

For data set [5], the target named is Beta-1 adrenergic receptor (Homo sapiens, UniProt P08588). Briefly: DRUGMATRIX: Adrenergic beta1 radioligand binding (ligand: [125I] Cyanopindolol). The settings on record: cho-k1; Not Active = under 50% inhibition at 10 µM. The data set is classed as cell membranes, CHO-K1, Membrane.
Beta-1 adrenergic receptor, sequence (P08588 whole entry): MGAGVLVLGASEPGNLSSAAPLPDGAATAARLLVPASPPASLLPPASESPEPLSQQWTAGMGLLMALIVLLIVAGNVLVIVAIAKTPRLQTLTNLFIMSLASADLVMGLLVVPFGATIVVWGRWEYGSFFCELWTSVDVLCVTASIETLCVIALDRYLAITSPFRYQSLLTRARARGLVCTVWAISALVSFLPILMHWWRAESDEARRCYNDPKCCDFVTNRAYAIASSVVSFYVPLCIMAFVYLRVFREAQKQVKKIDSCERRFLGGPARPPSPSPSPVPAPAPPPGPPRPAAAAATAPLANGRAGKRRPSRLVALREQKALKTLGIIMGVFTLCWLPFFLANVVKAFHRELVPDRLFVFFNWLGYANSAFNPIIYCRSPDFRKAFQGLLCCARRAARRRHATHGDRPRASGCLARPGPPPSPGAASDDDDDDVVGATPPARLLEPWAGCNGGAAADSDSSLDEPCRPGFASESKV
Data set [6] can be described thus: DRUGMATRIX: Serotonin (5-Hydroxytryptamine) 5-HT3 radioligand binding (ligand: [3H] GR-65630). Conditions: hek293; Not Active = under 50% inhibition at 10 µM. It counts as cell membranes, Membrane.
Data set [7] deals with Voltage-gated inwardly rectifying potassium channel KCNH2 (Homo sapiens, UniProt Q12809). Conditions: hek293.
Voltage-gated inwardly rectifying potassium channel KCNH2, sequence (Q12809 whole entry): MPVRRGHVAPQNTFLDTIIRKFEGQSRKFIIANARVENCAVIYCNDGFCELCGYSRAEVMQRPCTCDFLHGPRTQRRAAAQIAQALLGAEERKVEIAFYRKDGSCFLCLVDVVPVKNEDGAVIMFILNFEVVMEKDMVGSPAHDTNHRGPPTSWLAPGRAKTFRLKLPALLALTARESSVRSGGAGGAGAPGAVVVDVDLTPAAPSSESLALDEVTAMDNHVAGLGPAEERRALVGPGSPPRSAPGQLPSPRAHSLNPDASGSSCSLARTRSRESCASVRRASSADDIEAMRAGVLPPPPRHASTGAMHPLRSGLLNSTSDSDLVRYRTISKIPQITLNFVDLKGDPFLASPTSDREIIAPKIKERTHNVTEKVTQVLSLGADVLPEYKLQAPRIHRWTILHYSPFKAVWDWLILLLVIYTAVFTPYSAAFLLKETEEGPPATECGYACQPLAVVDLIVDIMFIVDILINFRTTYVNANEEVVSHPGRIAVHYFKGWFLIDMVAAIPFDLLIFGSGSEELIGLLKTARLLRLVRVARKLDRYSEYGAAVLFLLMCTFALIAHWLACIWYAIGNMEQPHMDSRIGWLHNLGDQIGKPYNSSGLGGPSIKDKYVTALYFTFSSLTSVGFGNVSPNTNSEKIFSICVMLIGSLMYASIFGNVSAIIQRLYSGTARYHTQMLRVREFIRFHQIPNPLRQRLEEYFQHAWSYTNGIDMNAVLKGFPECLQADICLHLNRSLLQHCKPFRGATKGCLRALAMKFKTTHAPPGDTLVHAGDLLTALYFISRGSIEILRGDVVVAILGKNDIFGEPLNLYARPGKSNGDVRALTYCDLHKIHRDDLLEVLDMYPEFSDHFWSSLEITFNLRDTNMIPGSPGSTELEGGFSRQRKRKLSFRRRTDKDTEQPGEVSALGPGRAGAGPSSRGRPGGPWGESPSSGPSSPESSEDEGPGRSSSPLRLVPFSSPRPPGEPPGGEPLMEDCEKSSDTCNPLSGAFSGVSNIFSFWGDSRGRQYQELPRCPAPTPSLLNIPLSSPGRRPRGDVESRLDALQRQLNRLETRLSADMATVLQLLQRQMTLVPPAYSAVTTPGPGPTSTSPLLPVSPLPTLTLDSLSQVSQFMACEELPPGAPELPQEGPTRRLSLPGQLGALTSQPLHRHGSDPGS

Take `COc1ccc(CCN(C)CCCC(C#N)(c2ccc(OC)c(OC)c2)C(C)C)cc1OC` (configuration not stated): the IC50 entry (in data set [1]; on Cytochrome P450 2A6; on Cathepsin G; in [2]; in data set [3]; in data set [4] (sf9)) was “Not Active” in each case. The IC50 entry in data set [5] and in [6] was “Not Active” in each case. The Ki entry (on Cytochrome P450 2A6; in data set [3]; in data set [6]) was “Not Active” each time.

Regarding `CC(C)Cc1ccc([C@@H](C)C(=O)O)cc1` [(R)-IBUPROPHEN], the IC50 result (in [1]; on Cytochrome P450 2A6; on Cathepsin G; in [2]; in data set [7]; in data set [3]) was “Not Active” throughout. The IC50 result in data set [4] (sf9), in data set [5] and in data set [6] was “Not Active” in each case. The Ki entry (at Cytochrome P450 2A6; in [7]; in [3]; in data set [6]) was “Not Active” in each case.

`CC(C)NCC(O)c1ccc(O)c(O)c1` (configuration not stated) [ISOPROTERENOL]: the IC50 result (in [1]; against Cytochrome P450 2A6; against Cathepsin G; in [2]; in [7]; in data set [3]) was “Not Active” throughout. The half-maximal inhibitory concentration (IC50) entry in data set [4] (sf9) and in data set [6] was “Not Active” each time. In addition, the inhibition constant (Ki) result (at Cytochrome P450 2A6; in [7]; in data set [3]; in data set [6]) was “Not Active” in each case.

In the case of `NC(=O)N1C(=O)/C(=C(\O)c2cccs2)c2cc(Cl)ccc21` [TENIDAP], the IC50 entry (in [1]; at Cytochrome P450 2A6; against Cathepsin G; in data set [2]; in data set [7]; in data set [3]) was “Not Active” in each case. Moreover, the IC50 entry in [4] (sf9), in data set [5] and in data set [6] was “Not Active” in each case. The inhibition constant (Ki) result (on Cytochrome P450 2A6; in data set [7]; in data set [3]; in data set [6]) was “Not Active” each time.

Take `CCN(CC)CCOc1ccc(/C(=C(/Cl)c2ccccc2)c2ccccc2)cc1` [ENCLOMIPHENE]: the IC50 result is “Not Active” in data set [1]; “Not Active” at Cytochrome P450 2A6; “Not Active” at Cathepsin G; “Not Active” in data set [2]; “Not Active” in data set [7]; 1480 nM in data set [4] (read-out: IC50). In addition, in [5], the IC50 result was “Not Active”. In addition, the Ki entry is “Not Active” at Cytochrome P450 2A6, “Not Active” in [7] and 215 nM in [4].

As for `CN[C@H]1CC[C@@H](c2ccc(Cl)c(Cl)c2)c2ccccc21` [SERTRALINE], the IC50 entry (in data set [1]; on Cytochrome P450 2A6; against Cathepsin G; in data set [2]; in data set [5]) was “Not Active” each time. For the same compound, the Ki result at Cytochrome P450 2A6 is on record as “Not Active”.

As to `CCN(CC)CC(=O)Nc1c(C)cccc1C` [LIDOCAINE], the concentration for half-maximal inhibition (IC50) result (in [1]; at Cytochrome P450 2A6; at Cathepsin G; in data set [2]; in data set [3]; in data set [4] (sf9)) was “Not Active” each time. Besides, the half-inhibitory concentration (IC50) result in [5] and in data set [6] was “Not Active” throughout. For the same compound, the Ki entry (on Cytochrome P450 2A6; in data set [3]; in data set [6]) was “Not Active” in each case.

On to `CN(C)CCOC(c1ccccc1)c1ccccc1` [DIPHENHYDRAMINE], for which the IC50 entry (in data set [1]; against Cathepsin G; in data set [2]; in [4] (sf9); in data set [5]) was “Not Active” throughout.

Take `Cc1c(C)c2c(c(C)c1O)CCC(C)(CN1CCN(c3cc(N4CCCC4)nc(N4CCCC4)n3)CC1)O2` (configuration not stated): the IC50 entry (in data set [1]; on Cathepsin G; in data set [2]; in data set [7]; in data set [3]; in data set [4] (sf9)) was “Not Active” each time. Besides, the IC50 result in [5] and in data set [6] was “Not Active” throughout. Further, the Ki result in [7], in data set [3] and in data set [6] was “Not Active” throughout.

`Fc1ccc(C(c2ccc(F)cc2)N2CCN(C/C=C/c3ccccc3)CC2)cc1` [FLUNARIZINE]: the IC50 result in data set [1] was “Not Active”; at Cytochrome P450 2A6 it was “Not Active”; against Cathepsin G it was “Not Active”; in [2], “Not Active”; in [4] (read-out: IC50), 222 nM; in data set [5] it was “Not Active”. The figures for the Ki result (at Cytochrome P450 2A6; in [4]) were “Not Active” and 32 nM, respectively.

For the compound `CC(C)NCC(O)c1ccc(NS(C)(=O)=O)cc1` (configuration not stated) [SOTALOL], the IC50 result (in data set [1]; against Cytochrome P450 2A6; against Cathepsin G; in data set [2]; in data set [7]; in data set [3]) was “Not Active” in each case. The IC50 entry in data set [4] (sf9) and in data set [6] was “Not Active” throughout. In addition, the Ki entry (on Cytochrome P450 2A6; in data set [7]; in [3]; in data set [6]) was “Not Active” each time.

As for `CNCCC(Oc1ccc(C(F)(F)F)cc1)c1ccccc1` (configuration not stated) [FLUOXETINE], the IC50 result (in [1]; on Cytochrome P450 2A6; against Cathepsin G; in data set [2]; in data set [4] (sf9); in data set [5]) was “Not Active” throughout. Moreover, on Cytochrome P450 2A6, the Ki entry is “Not Active”.

For `Cc1ccc(NC(=O)c2ccc(CN3CCN(C)CC3)cc2)cc1Nc1nccc(-c2cccnc2)n1` [IMATINIB], the half-inhibitory concentration (IC50) result (in [1]; on Cytochrome P450 2A6; against Cathepsin G; in data set [2]; in [4] (sf9); in data set [5]) was “Not Active” throughout. Further, at Cytochrome P450 2A6, the Ki entry was “Not Active”.

With `Clc1ccc(COC(Cn2ccnc2)c2ccc(Cl)cc2Cl)cc1` (configuration not stated) [ECONAZOLE], the IC50 entry (in data set [1]; against Cytochrome P450 2A6; against Cathepsin G; in data set [2]; in data set [4] (sf9)) was “Not Active” each time. Besides, the Ki entry at Cytochrome P450 2A6 is “Not Active”.

For `COc1cc2nc(N3CCN(C(=O)C4CCCO4)CC3)nc(N)c2cc1OC` (configuration not stated) [TERAZOSIN], the IC50 entry (in [1]; against Cytochrome P450 2A6; against Cathepsin G; in data set [2]; in data set [3]; in data set [5]) was “Not Active” throughout. In [6], the IC50 entry is “Not Active”. Moreover, the Ki result (on Cytochrome P450 2A6; in data set [3]; in data set [6]) was “Not Active” each time.
